Measured values published in US20260250318A1, “COMPOSITIONS AND METHODS FOR CROSSING THE BLOOD BRAIN BARRIER” (VOYAGER THERAPEUTICS, INC., priority 2022, published 2026).

Tests used:
Conditions in all cases: synthetic library passage 3, intravenous, relative to wild-type AAV9
[1] = test system: brain, spinal cord, and DRG of the NHPs; test: NGS fold enrichment of synthetic library (passage 3) in NHPs, first cross-species screen; assay type: in vivo, cynomolgus macaques (Macaca fascicularis)
Protocol: (§1) After creation of the synthetic library with the sub-selected variants, the synthetic library was screened (passage 3) in two NHPs (2-4 years of age) and two strains of mice, BALB/c (n=3, 6-8 weeks of age) and C57Bl/6 mice (n=3, 6-8 weeks of age), in a first cross-species evolution screen. The animals were injected intravenously with the synthetic library. After a period in vivo, (e.g., 28-days) RNA was extracted from nervous tissue, e.g., brain, spinal cord, and DRG of the NHPs and the brains of mice. Following RNA recovery and RT-PCR amplification, a systematic NGS enrichment analysis was performed, and the peptides comprised within the variants were identified and the capsid enrichment ratio for each variant compared to the wild-type AAV9 control was calculated (fold enrichment relative to wild-type AAV9) (Table 9). […] All animals were dosed intravenously at […] across the screen.

brain [2] = test: NGS fold enrichment of synthetic library (passage 3) in BALB/c mice, first cross-species screen; assay type: in vivo
Protocol: as §1

brain [3] = test: NGS fold enrichment of synthetic library (passage 3) in C57Bl/6 mice, first cross-species screen; assay type: in vivo
Protocol: as §1

[4] = RNA from spinal cord of NHPs, NGS
[5] = RNA from brain of BALB/c mice, NGS
[6] = RNA from brain of C57Bl/6 mice, NGS

Sequence | Fold enrichment over AAV9 in the brain of NHPs ([1]; RNA from brain of NHPs, NGS) [fold] | Fold enrichment over AAV9 in the spinal cord of NHPs [1, 4] [fold] | Fold enrichment over AAV9 in the brain of Mice (BALB/c) (brain [2]; [5]) [fold] | Fold enrichment over AAV9 in the brain of Mice (C57Bl/6) (brain [3]; [6]) [fold] | Fold enrichment over AAV9 in the brain of NHPs ([1]; RNA NGS, brain of NHPs) [fold] | Fold enrichment over AAV9 in the spinal cord of NHPs ([1]; RNA NGS, spinal cord of NHPs) [fold] | Fold enrichment over AAV9 in the brain of Mice (BALB/c) (brain [2]; RNA NGS, brain of BALB/c mice) [fold] | Fold enrichment over AAV9 in the brain of Mice (C57Bl/6) (brain [3]; RNA NGS, brain of C57Bl/6 mice) [fold]
GCTTRLNSGQNQQT | 1.276 | 0.000 | 0.618 | 0.184 |  |  |  | 
GDAGVRSSGQNQQT |  |  |  |  | 2.068 | 3.918 | 1.193 | 1.033
GDMTRSSSGQNQQT |  |  |  |  | 1.075 | 0.802 | 1.038 | 1.145
GDSSLRHSGQNQQT |  |  |  |  | 2.194 | 0.000 | 0.412 | 0.662
GDSSSRISGQNQQT | 1.151 | 3.787 | 0.348 | 0.916 |  |  |  | 
GEKAVTSSGQNQQT | 1.402 | 0.998 | 0.327 | 0.558 |  |  |  | 
GERAFPTSGQNQQT |  |  |  |  | 1.775 | 6.515 | 0.362 | 0.972
GERHTVLSGQNQQT |  |  |  |  | 3.289 | 3.008 | 0.607 | 1.027
GESRAVLSGQNQQT |  |  |  |  | 1.476 | 0.938 | 0.368 | 0.789
GEVSRVLSGQNQQT | 1.318 | 0.437 | 0.440 | 1.150 |  |  |  | 
GFAHQASSGQNQQT |  |  |  |  | 1.587 | 1.852 | 1.080 | 1.638
GFIFPKVSGQNQQT | 1.237 | 0.000 | 0.692 | 1.764 |  |  |  | 
GFMSYKGSGQNQQT |  |  |  |  | 2.865 | 0.209 | 0.569 | 1.808
GFNGSPSSGQNQQT |  |  |  |  | 2.609 | 12.197 | 0.924 | 2.338
GFSSAVHSGQNQQT |  |  |  |  | 1.502 | 1.234 | 0.210 | 0.218
